The source of these data is patent US9920010B2, “CXCR7 receptor modulators” (IDORSIA PHARMACEUTICALS LTD, priority 2013, dated 2018).

T1 sequence (P25106 whole entry): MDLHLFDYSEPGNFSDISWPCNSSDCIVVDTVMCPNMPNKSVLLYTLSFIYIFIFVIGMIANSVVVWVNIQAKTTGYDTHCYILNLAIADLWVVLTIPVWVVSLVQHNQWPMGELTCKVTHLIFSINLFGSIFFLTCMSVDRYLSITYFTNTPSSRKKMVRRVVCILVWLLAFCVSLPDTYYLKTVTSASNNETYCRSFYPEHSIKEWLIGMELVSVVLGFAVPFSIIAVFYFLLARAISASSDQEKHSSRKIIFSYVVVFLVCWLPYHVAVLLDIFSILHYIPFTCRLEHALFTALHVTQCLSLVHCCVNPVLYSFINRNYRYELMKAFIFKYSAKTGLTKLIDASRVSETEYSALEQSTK
T1 sequence (P32121 whole entry partner): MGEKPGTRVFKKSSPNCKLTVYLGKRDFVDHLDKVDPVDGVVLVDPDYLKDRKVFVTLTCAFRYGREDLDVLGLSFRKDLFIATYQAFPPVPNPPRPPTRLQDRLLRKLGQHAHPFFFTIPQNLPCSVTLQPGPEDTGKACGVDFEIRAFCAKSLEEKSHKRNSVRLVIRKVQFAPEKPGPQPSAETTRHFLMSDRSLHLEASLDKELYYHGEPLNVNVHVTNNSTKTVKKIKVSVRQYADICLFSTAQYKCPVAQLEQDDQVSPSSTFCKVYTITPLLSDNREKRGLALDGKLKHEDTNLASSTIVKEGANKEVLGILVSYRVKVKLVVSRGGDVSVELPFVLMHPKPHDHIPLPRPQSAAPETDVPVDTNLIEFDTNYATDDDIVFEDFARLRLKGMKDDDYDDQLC

This experiment has as its target T1, CXCR7 (Homo sapiens, UniProt P25106).
T1 construct: host or cells: CHO-K1 (PathHunter CHO-K1 CXCR7 b-arrestin cell line, stably transfected)
Briefly: PathHunter CHO-K1 CXCR7 b-arrestin recruitment assay (CXCR7 agonistic activity). It counts as cell-based. As to conditions: PathHunter CHO-K1 CXCR7 b-arrestin cell line. The essentials: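 Stable CHO-K1 line with C-terminally ProLink-tagged CXCR7 and β-arrestin 2–EA fusion; β-arrestin recruitment restores β-gal activity, read by chemiluminescence after 1 h RT detection. Cells seeded 24 h, starved in OPTIMEM 3–4 h, exposed to compounds 90 min at 37 °C in HBSS/HEPES/BSA. Geometric-mean EC50 from repeated measurements.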
As to `COCCN1CCc2c(CCC(=O)N(CCN3CCC(F)(F)CC3)Cc3ncccc3C(F)(F)F)cccc2C1` [Example 340, N-[2-(4,4-Difluoro-piperidin-1-yl)-ethyl]-3-[2-(2-methoxy-ethyl)-1,2,3,4-tetrahydro-isoquinolin-5-yl]-N-(3-trifluoromethyl-pyridin-2-ylmethyl)-propionamide], the half-maximal effective concentration (EC50) came out at 277 nM. Compound `CCN1CCc2cccc(OC(C)C(=O)N(CCN(C)C)Cc3ccccc3C(F)(F)F)c2C1` (stereo not drawn) [compound 548] gave a half-maximal effective concentration (EC50) of 133 nM. `CN(C)CCN(Cc1ccccc1)C(=O)CNc1cccc2c1CCN(CC(C)(C)C)C2` [compound 116] had an EC50 of 96 nM. Under `CCOC(=O)CN(Cc1ccccc1)C(=O)/C=C/c1cccc2c1CCN(CC1CC1)C2` [compound 144, {Benzyl-[(E)-3-(2-cyclopropylmethyl-1,2,3,4-tetrahydro-isoquinolin-5-yl)-acryloyl]-amino}-acetic acid ethyl ester] stands 22 nM; under `COCCN1CCc2c(/C=C/C(=O)N(Cc3ncccc3Cl)CC(C)(C)O)cccc2C1` [Example 328, (E)-N-(3-Chloro-pyridin-2-ylmethyl)-N-(2-hydroxy-2-methyl-propyl)-3-[2-(2-methoxy-ethyl)-1,2,3,4-tetrahydro-isoquinolin-5-yl]-acrylamide], 293 nM.

`COCCN1CCc2c(CCC(=O)N(CCN(C)CCF)Cc3ccccc3C(F)(F)F)cccc2C1` [Example 342, N-{2-[(2-Fluoro-ethyl)-methyl-amino]-ethyl}-3-[2-(2-methoxy-ethyl)-1,2,3,4-tetrahydro-isoquinolin-5-yl]-N-(2-trifluoromethyl-benzyl)-propionamide] gave an EC50 of 110 nM. Under `CN1CCCC1CCN(Cc1ccccc1)C(=O)CNc1cccc2c1CCN(CC1CC1)C2` (racemic) [Example 42, rac-N-Benzyl-2-(2-cyclopropylmethyl-1,2,3,4-tetrahydro-isoquinolin-5-ylamino)-N-[2-(1-methyl-pyrrolidin-2-yl)-ethyl]-acetamide] stands 5 nM; under `C[C@H](Nc1cccc2c1CCN(CC1CC1)C2)C(=O)N(CCN(C)C)Cc1ccccc1C(F)(F)F` [Example 291, (S)-2-(2-Cyclopropylmethyl-1,2,3,4-tetrahydro-isoquinolin-5-ylamino)-N-(2-dimethylamino-ethyl)-N-(2-trifluoromethyl-benzyl)-propionamide], 92 nM. With `CCC(=O)N1CCc2c(cccc2NCC(=O)N(CCN(C)C)Cc2ccccc2C)C1` [Example 15, N-(2-Dimethylamino-ethyl)-N-(2-methyl-benzyl)-2-(2-propionyl-1,2,3,4-tetrahydro-isoquinolin-5-ylamino)-acetamide] the figure was 15 nM; with `COC(=O)CN1CCc2c(cccc2NCC(=O)N(CCN(C)C)Cc2ccccc2C(F)(F)F)C1` [Example 360, [5-({[(2-Dimethylamino-ethyl)-(2-trifluoromethyl-benzyl)-carbamoyl]-methyl}-amino)-3,4-dihydro-1H-isoquinolin-2-yl]-acetic acid methyl ester], 30 nM; with `CCN1CCc2cccc(NCC(=O)N(CCN(C)C)Cc3c(F)cccc3F)c2C1` [compound 524, N-(2,6-Difluoro-benzyl)-N-(2-dimethylamino-ethyl)-2-(2-ethyl-1,2,3,4-tetrahydro-isoquinolin-8-ylamino)-acetamide], 27 nM. Regarding `Cc1ccc2c(c1NCC(=O)N(CCN(C)C)Cc1ccccc1C(F)(F)F)CCN(CC1CC1)C2` [Example 290, 2-(2-Cyclopropylmethyl-6-methyl-1,2,3,4-tetrahydro-isoquinolin-5-ylamino)-N-(2-dimethylamino-ethyl)-N-(2-trifluoromethyl-benzyl)-acetamide], the midpoint of the response, the EC50, lay at 5 nM. With `CN(C)CCN(Cc1c(F)cccc1F)C(=O)CNc1cccc2c1CCN(CC1CC1)C2` [Example 270, 2-(2-Cyclopropylmethyl-1,2,3,4-tetrahydro-isoquinolin-5-ylamino)-N-(2,6-difluoro-benzyl)-N-(2-dimethylamino-ethyl)-acetamide] the figure was 7 nM. Under `CCN(CCN(Cc1ccccc1C(F)(F)F)C(=O)CNc1cccc2c1CCN(CC1CC1)C2)C(=O)OC(C)(C)C` [Example 232, {2-[[2-(2-Cyclopropylmethyl-1,2,3,4-tetrahydro-isoquinolin-5-ylamino)-acetyl]-(2-trifluoromethyl-benzyl)-amino]-ethyl}-ethyl-carbamic acid tert-butyl ester] stands 162 nM; under `CN(C)CCN(Cc1ccccc1)C(=O)CNc1cccc2c1CN(C(=O)c1ccccc1)CC2` [compound 195, 2-(2-Benzoyl-1,2,3,4-tetrahydro-isoquinolin-8-ylamino)-N-benzyl-N-(2-dimethylamino-ethyl)-acetamide], 12 nM; under `CCN1CCc2cccc(NCC(=O)N(CCN3CCCC3)Cc3ccccc3)c2C1` [compound 509, N-Benzyl-2-(2-ethyl-1,2,3,4-tetrahydro-isoquinolin-8-ylamino)-N-(2-pyrrolidin-1-yl-ethyl)-acetamide], 36 nM. With `COCCN1CCc2c(cccc2NCC(=O)N(CCN(C)C(=O)OC(C)(C)C)Cc2ccccc2C(F)(F)F)C1` [Example 297, {2-[{2-[2-(2-Methoxy-ethyl)-1,2,3,4-tetrahydro-isoquinolin-5-ylamino]-acetyl}-(2-trifluoromethyl-benzyl)-amino]-ethyl}-methyl-carbamic acid tert-butyl ester] the figure was 461 nM. `CN(CCN(Cc1ccccc1C(F)(F)F)C(=O)CNc1cccc2c1CCN(CC1CC1)C2)C1CC1` [Example 220, N-[2-(Cyclopropyl-methyl-amino)-ethyl]-2-(2-cyclopropylmethyl-1,2,3,4-tetrahydro-isoquinolin-5-ylamino)-N-(2-trifluoromethyl-benzyl)-acetamide] showed an EC50 of 3 nM. With `CN(C)CCN(Cc1ccccc1C(F)(F)F)C(=O)CNc1c(Cl)ccc2c1CCN(CC1CC1)C2` [Example 88, 2-(6-Chloro-2-cyclopropylmethyl-1,2,3,4-tetrahydro-isoquinolin-5-ylamino)-N-(2-dimethylamino-ethyl)-N-(2-trifluoromethyl-benzyl)-acetamide] the figure was 11 nM; with `CCCCNC(=O)N1CCc2c(cccc2NCC(=O)N(CCNC)Cc2ccccc2C(F)(F)F)C1` [compound 405], 257 nM; with `CCN1Cc2c(cccc2NCC(=O)N(CCN(C)C)Cc2ccccc2C(F)(F)F)CC1=O` [compound 543], 84 nM. With `CCn1ccc(C(C)N(Cc2ccccc2C(F)(F)F)C(=O)CNc2cccc3c2CCN(CC2CC2)C3)n1` (racemic) [Example 80, rac-2-(2-Cyclopropylmethyl-1,2,3,4-tetrahydro-isoquinolin-5-ylamino)-N-[1-(1-ethyl-1H-pyrazol-3-yl)-ethyl]-N-(2-trifluoromethyl-benzyl)-acetamide] the figure was 47 nM; with `CC(O)CN(Cc1ccccc1C(F)(F)F)C(=O)CNc1cccc2c1CCN(CC1CC1)C2` (racemic) [Example 240, rac-2-(2-Cyclopropylmethyl-1,2,3,4-tetrahydro-isoquinolin-5-ylamino)-N-(2-hydroxy-propyl)-N-(2-trifluoromethyl-benzyl)-acetamide], 15 nM; with `CN1CCCC1CCN(Cc1ccccc1)C(=O)Cc1cccc2c1CCN(CC1CC1)C2` (racemic) [Example 4, rac-N-Benzyl-2-(2-cyclopropylmethyl-1,2,3,4-tetrahydro-isoquinolin-5-yl)-N-[2-(1-methyl-pyrrolidin-2-yl)-ethyl]-acetamide], 47 nM. Under `CCN1Cc2cccc(NCC(=O)N(CCN(C)C)Cc3ncccc3C(F)(F)F)c2CC1=O` [Example 310, N-(2-Dimethylamino-ethyl)-2-(2-ethyl-3-oxo-1,2,3,4-tetrahydro-isoquinolin-5-ylamino)-N-(3-trifluoromethyl-pyridin-2-ylmethyl)-acetamide] stands 78 nM. Turning to `CNCCN(Cc1ncccc1C(F)(F)F)C(=O)CNc1cccc2c1CCN(C(=O)OC(C)C)C2` [compound 424], the half-maximal effective concentration (EC50) stood at 60 nM. Regarding `CC(C)CCN(Cc1ccccc1)C(=O)CNc1cccc2c1CCN(C)C2` [compound 132], the half-maximal effective concentration (EC50) is 130 nM.

`CCN1CCc2cccc(OCC(=O)N(CCN(C)C)Cc3ccccc3C(F)(F)F)c2C1` [compound 567, N-(2-Dimethylamino-ethyl)-2-(2-ethyl-1,2,3,4-tetrahydro-isoquinolin-8-yloxy)-N-(2-trifluoromethyl-benzyl)-acetamide] came in with an EC50 of 4 nM. With `COCC(C)N1CCc2c(cccc2NCC(=O)N(CCN(C)C)Cc2ccccc2C(F)(F)F)C1` (racemic) [Example 354, rac-N-(2-Dimethylamino-ethyl)-2-[2-(2-methoxy-1-methyl-ethyl)-1,2,3,4-tetrahydro-isoquinolin-5-ylamino]-N-(2-trifluoromethyl-benzyl)-acetamide] the figure was 11 nM; with `CC(C1CC1)N1CCc2c(cccc2NCC(=O)N(CCN(C)C)Cc2ccccc2C(F)(F)F)C1` (stereo not drawn) [Example 357, 2-[2-(1-Cyclopropyl-ethyl)-1,2,3,4-tetrahydro-isoquinolin-5-ylamino]-N-(2-dimethylamino-ethyl)-N-(2-trifluoromethyl-benzyl)-acetamide], 4 nM. Under “2-(2-Cyclopropylmethyl-1,2,3,4-tetrahydro-isoquinolin-5-ylamino)-N-(2-dimethylamino-ethyl)-N-pyridin-3-ylmethyl-acetamide [Example 263]” stands 127 nM; under `CN(C)CCN(Cc1ccccc1C(F)(F)F)C(=O)CNc1cccc2c1CCN(C1CCOC1)C2` (racemic) [Example 351, rac-N-(2-Dimethylamino-ethyl)-2-[2-(tetrahydro-furan-3-yl)-1,2,3,4-tetrahydro-isoquinolin-5-ylamino]-N-(2-trifluoromethyl-benzyl)-acetamide], 34 nM; under `CCN1CCc2cccc(NCC(=O)N(CCN(C)C)Cc3cc(C)on3)c2C1` [compound 535], 355 nM.
